# Assay results: patent US3998795A, “(Acyl-D-α-amino acid-gly-gly-tyr-ala)^1 -somatostatin” (American Home Products Corporation, priority 1975, dated 1976)
# Test system: growth hormone
# Experiment: In vivo growth hormone release inhibition in Nembutal-treated rats, plasma growth hormone by radioimmunoassay
# Conditions: rats 200-250 g, Nembutal 50 mg/kg i.p.; after 5 min octadecapeptide 1000 micrograms/kg s.c.; blood sampled 15 min after administration; control 236 ± 30; p<0.01
# Protocol: The in vivo activity of the octadecapeptides of this invention was established with (CH3 CO-D-Ala-Gly-Gly-L-Tyr-L-Ala)^1 -Somatostatin as a representative member of the octadecapeptides of this invention by injecting Nembutal intraperitoneally into rats weighing between 200 and 250 grams in an amount of 50 milligrams per kilogram body weight. After five minutes, the octadecapeptide was administered to the rats, subcutaneously, at a dose of 1000 micrograms per kilogram body weight. The rats blood was sampled 15 minutes after administration of the octadecapeptide and the amount of growth hormone present in the plasma was determined by radioimmunoassay. The octadecapeptide afforded a blood plasma concentration of growth hormone in the test animals of 74 ± 16 nanograms per milliliter as opposed to the concentration of growth hormone in the control animals of 236 ± 30 nanograms per milliliter, at a statistical certainty of p<0.01.
compound,measurement,value
CC(=O)N[C@H](C)C(=O)NCC(=O)NCC(=O)N[C@@H](Cc1ccc(O)cc1)C(=O)N[C@@H](C)C(=O)NCC(=O)N[C@H]1CSSC[C@@H](C(=O)O)NC(=O)[C@H](CO)NC(=O)[C@H]([C@@H](C)O)NC(=O)[C@H](Cc2ccccc2)NC(=O)[C@H]([C@@H](C)O)NC(=O)[C@H](CCCCN)NC(=O)[C@H](Cc2c[nH]c3ccccc23)NC(=O)[C@H](Cc2ccccc2)NC(=O)[C@H](Cc2ccccc2)NC(=O)[C@H](CC(N)=O)NC(=O)[C@H](CCCCN)NC1=O [N-α-Acetyl-D-alanyl-glycyl-glycyl-L-tyrosyl-L-alanyl-glycyl-L-cysteinyl-L-lysyl-L-asparaginyl-L-phenylalanyl-L-phenylalanyl-L-tryptophyl-L-lysyl-L-threonyl-L-phenylalanyl-L-threonyl-L-seryl-L-cysteine (7-18 disulfide) diacetate],blood plasma concentration of growth hormone,74 ± 16 nanograms per milliliter
